Here are results for 17 molecules from PubChem BioAssay (NCI).

Assay in all cases: NCI-60 cell line screen, 48 h
For assay [1], the system named is SNB-75 CNS.
Assay [2] concerns OVCAR-5 ovarian.
Assay [3] has as its system KM12 colon.
The subject of assay [4] is SK-MEL-5 melanoma.
Assay [5] has as its system ACHN renal.
The test system of assay [6] is SR leukemia.
The subject of assay [7] is COLO 205 colon.
The test system of assay [8] is HOP-92 NSCLC.
Assay [9] deals with SNB-19 CNS.
Assay [10] relates to HCC-2998 colon.

Where “and” joins values, the source holds several entries; their conditions need not be identical. Equal entries are not always repeated.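 Assay format: 96-well plates, 48-hour exposure. Abbreviation: GI50, concentration required for 50% inhibition of growth. TGI: total growth inhibition.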

`COc1cc(SC)ccc1C(=O)N1CCCC(C)C1` (stereo not drawn): the GI50 was greater than 100 µM in assay [1]; greater than 100 µM in [2]; greater than 100 µM in assay [3]; 33.3 µM in [4]; greater than 100 µM in assay [5]; greater than 100 µM in assay [6]. Further, the GI50 in assay [7] is greater than 100 µM; in [8] it was 95.7 µM; in assay [9], greater than 100 µM; in assay [10], greater than 100 µM. For the same molecule, the TGI in [1], in assay [2], in assay [3], in assay [4], in assay [5] and in assay [6] was greater than 100 µM in each case. In addition, the TGI in [7], in assay [8], in [9] and in assay [10] was greater than 100 µM each time.
Take `N#CC(/C(=N\NC(N)=S)C(=O)NC1C2CC3CC(C2)CC1C3)c1ccc(Cl)cc1` (stereo not drawn): the TGI in assay [1], in [2], in assay [3], in [4], in assay [5] and in assay [6] was greater than 100 µM throughout. For the same molecule, the TGI in assay [7], in [8], in [9] and in assay [10] was greater than 100 µM in each case.
In the case of `Cc1ccc(Nc2ccnc(Nc3cccc(C(N)=O)c3)n2)cc1O`, the GI50 is 0.431 µM in [1]; 10.2 µM in assay [2]; 7.27 µM in assay [3]; 6.63 µM in [4]; 4.32 µM in [5]; 11.3 µM in assay [6]. Further, the GI50 in [7] is 10.1 µM; in assay [8], 0.891 µM; in assay [9], 11.5 µM; in assay [10], 12.6 µM. The TGI is 3.93 µM in [1]; greater than 25 µM in [2]; greater than 25 µM in assay [3]; greater than 21.6 µM in [4]; greater than 25 µM in assay [5]; greater than 25 µM in [6]. The TGI in assay [7] was greater than 20.6 µM; in [8] it was 8.25 µM; in assay [9], greater than 25 µM; in assay [10], greater than 25 µM.
Take `CCNC1=CC(=O)c2ncccc2C1=O`: the GI50 in assay [1] was 1.19 µM; in [2], 1.79 µM; in assay [3], 3.25 µM; in assay [4], 0.298 µM; in assay [5], 5.9 µM; in assay [6], 3.71 µM. Further, the GI50 in assay [7] was 1.63 µM; in assay [8], 10.3 µM; in assay [9], 1.59 µM; in assay [10] it was 2.16 µM. The TGI is 2.45 µM in assay [1]; 3.47 µM in assay [2]; 15.1 µM in [3]; 1.11 µM in assay [4]; 19.6 µM in assay [5]; 11 µM in [6]. For the same molecule, the TGI in [7] was 3.3 µM; in assay [8], 25.3 µM; in assay [9], 6.7 µM; in assay [10] it was 5.37 µM.
In the case of `COc1ccc2c3c([nH]c2c1)[C@H]1C[C@H]2[C@H](C[C@@H](O)[C@H](OC)[C@H]2C(=O)O)CN1CC3`, the TGI in [1], in [2], in assay [3], in [4], in assay [5] and in assay [6] was greater than 100 µM in each case. Moreover, the TGI in [7], in [8], in assay [9] and in assay [10] was greater than 100 µM in each case.
`CN1C=CN(Cc2ccc(-c3ccccn3)nc2)[CH-]1.CN1C=CN(Cc2ccc(-c3ccccn3)nc2)[CH-]1.[Au+3]`: the GI50 in assay [1] is 13.9 µM; in [2], 5.84 µM; in assay [3], 1.89 µM; in assay [4] it was 1.36 µM; in assay [5], 14.6 µM; in [6], 0.372 µM. For the same molecule, the GI50 was 0.421 µM in [7], 3.2 µM in assay [8], 7.83 µM in assay [9] and 5.47 µM in assay [10]. The TGI in assay [1] was greater than 51.8 µM; in assay [2], 27.3 µM; in assay [3] it was greater than 38.2 µM; in assay [4], 17.8 µM; in assay [5], greater than 100 µM; in assay [6] it was 42.7 µM. For the same molecule, the TGI is 17.8 µM in assay [7], 10.2 µM in assay [8], 40 µM in assay [9] and greater than 42.7 µM in assay [10].
For the molecule `Cn1cc(/C=C2\C(=O)Nc3cccnc32)c2ccccc21`, the GI50 is greater than 19.6 µM in assay [1]; greater than 25 µM in assay [2]; 0.885 µM in [3]; 9.2 µM in assay [4]; 11.5 µM in assay [5]; greater than 25 µM in assay [6]. In addition, the GI50 in [7] is 20.6 µM; in [8], 2.51 µM; in assay [9], greater than 25 µM; in assay [10], greater than 25 µM. The TGI in assay [1], in assay [2], in assay [3], in [4], in [5] and in [6] was greater than 25 µM throughout. The TGI in [7] was greater than 25 µM; in assay [8], 24.8 µM; in assay [9], greater than 25 µM; in assay [10], greater than 25 µM.
On to `O=c1c2c(=NCCCN3CCCC3)cc3c(=O)n(CCCN4CCCC4)c(=O)c4c(NCCCN5CCCC5)cc(c(O)n1CCCN1CCCC1)c2c4-3`, for which the GI50 was 1.64 µM in [1]; 1.64 µM in [2]; 3.27 µM in assay [3]; 2.67 µM in assay [4]; 2.55 µM in assay [5]; 6.88 µM in [6]. The GI50 is 1.89 µM in assay [7], 2.15 µM in assay [8], 2.11 µM in [9] and 6.84 µM in assay [10]. In addition, the TGI in assay [1] amounted to 4.1 µM; in [2] it was 4.74 µM; in assay [3], 12.7 µM; in assay [4], 7.17 µM; in assay [5] it was 26.4 µM; in assay [6] it was 81.9 µM. The TGI in [7] was 4.21 µM; in assay [8], 18.8 µM; in assay [9] it was 10.6 µM; in [10], 23.1 µM.
As to `COc1ccccc1OCC(O)CO` (stereo not drawn), the GI50 in assay [1], in [2], in assay [3], in [4], in assay [5] and in assay [6] was greater than 100 µM each time. Further, the GI50 in assay [7], in assay [8], in [9] and in [10] was greater than 100 µM throughout. Further, the TGI in assay [1], in assay [2], in assay [3], in assay [4], in assay [5] and in [6] was greater than 100 µM throughout. The TGI in assay [7], in [8], in assay [9] and in [10] was greater than 100 µM throughout.
As for `NC(=O)c1ccc(-c2c3ccccc3cc3c2ccc2ccccc23)cc1`, the GI50 in assay [1] is 2.19 µM; in assay [2], 14.3 µM; in [3], 1.32 µM; in [4], 3.1 µM; in [5], 6.62 µM; in assay [6], 1.3 µM. Besides, the GI50 in assay [7] was 3.82 µM; in assay [8], 6.39 µM; in assay [9] it was 5.51 µM; in assay [10], 5.22 µM. Moreover, the TGI in assay [1] is 9.15 µM; in assay [2], greater than 100 µM; in [3], 15.2 µM; in assay [4], 14 µM; in [5] it was 62 µM; in assay [6] it was greater than 100 µM. For the same molecule, the TGI is 36.5 µM in assay [7], 25.8 µM in [8], 46.9 µM in assay [9] and 82.4 µM in assay [10].
As to `Cc1ccc(S(=O)(=O)ON=C2CC(c3ccccc3)N(C)C(c3ccccc3)C2)cc1` (stereo not drawn), the TGI in assay [1] is 79.3 µM and 66.9 µM; in assay [2] it was 92.6 µM; in assay [3], 34.1 µM; in assay [4] it was 32.5 µM and 31.8 µM; in assay [5], 50.7 µM; in [6], 62.5 µM and 57.3 µM. Also, the TGI was 29 µM and 28.3 µM in assay [7]; 43.5 µM and 46.7 µM in [8]; 92.8 µM and > 100 µM in assay [9]; 32.3 µM in assay [10].
On to `CC(Cl)CC(=O)Nc1ccc2c(c1)oc(=O)c1cc(NC(=O)CC(C)Cl)ccc12` (stereo not drawn), for which the GI50 in assay [1] was 15.1 µM; in assay [2], 16.8 µM; in assay [3], 7.44 µM; in [4] it was 11.5 µM; in assay [5], 12.2 µM; in assay [6] it was 3.42 µM. For the same molecule, the GI50 in assay [7] was 14.4 µM; in assay [8], 2.09 µM; in [9] it was 20.4 µM; in assay [10], 34.9 µM. Further, the TGI in assay [1] turned out to be 48.7 µM; in assay [2], 46.3 µM; in assay [3], 24.4 µM; in assay [4] it was 27.9 µM; in assay [5] it was 31.8 µM; in [6] it was 20.7 µM. The TGI in [7] was greater than 100 µM; in assay [8], 10.7 µM; in [9], 69.7 µM; in assay [10] it was greater than 100 µM.
On to `CCCC/C(C)=N/NC(N)=S`, for which the TGI in assay [1], in assay [2], in assay [3], in assay [4], in assay [5] and in assay [6] was greater than 100 µM each time. Further, the TGI in assay [7], in [8], in [9] and in assay [10] was greater than 100 µM in each case.
As to `C/C(=N\n1c(N)c(C#N)c(-c2ccc(Cl)cc2)c(C#N)c1=O)c1cccnc1`, the GI50 in [1] was 14.6 µM; in assay [2], greater than 100 µM; in assay [3], greater than 100 µM; in assay [4], greater than 100 µM; in assay [5], greater than 100 µM; in assay [6], greater than 100 µM. Further, the GI50 in [7], in assay [9] and in assay [10] was greater than 100 µM in each case. The TGI in assay [1] was 99.6 µM; in assay [2], greater than 100 µM; in assay [3] it was greater than 100 µM; in assay [4], greater than 100 µM; in assay [5], greater than 100 µM; in assay [6], greater than 100 µM. Also, the TGI in assay [7] was greater than 100 µM; in assay [8], 34.8 µM; in [9] it was greater than 100 µM; in assay [10] it was greater than 100 µM.
`CCn1cc(C2NC(=O)c3cc(F)ccc3N2)c2cccc(Cl)c21` (stereo not drawn): the GI50 in assay [1] was 0.123 µM; in assay [2] it was 0.503 µM; in [3], 0.277 µM; in assay [4], 0.446 µM; in [5], 0.606 µM; in assay [6], 0.039 µM. Also, the GI50 in assay [7] was 0.349 µM; in assay [8], greater than 24.4 µM; in assay [9], 0.382 µM; in [10], 0.348 µM. Further, the TGI in assay [1] was 11.9 µM; in [2], greater than 100 µM; in [3], greater than 100 µM; in [4] it was greater than 100 µM; in assay [5] it was greater than 100 µM; in [6], greater than 100 µM. In addition, the TGI in assay [8] is greater than 100 µM; in assay [9] it was greater than 100 µM; in assay [10], greater than 25.5 µM.
For `COc1ccccc1OCC(COC(=O)Nc1ccc(C)cc1)OC(=O)Nc1ccc(C)cc1` (stereo not drawn), the TGI in assay [1] is 69.1 µM; in [2] it was 47.4 µM; in assay [3] it was 43.4 µM; in assay [4], 47.7 µM; in assay [5], 67.7 µM; in assay [6], 59.6 µM. The TGI in assay [7] worked out at 32.4 µM; in [8], 29 µM; in [9], 46.7 µM; in assay [10], 35.3 µM.
With `COCCn1cc(-c2csc(-c3c[nH]c4ccc(F)cc34)n2)c2cccnc21`, the GI50 was 2.97 µM in assay [1]; 10.1 µM in assay [2]; 1.77 µM in assay [3]; 2.69 µM in assay [4]; 5.27 µM in assay [5]; 3.24 µM in assay [6]. The GI50 in assay [7] was 2.69 µM; in assay [8], 6.28 µM; in assay [9] it was 98 µM; in assay [10], 4.54 µM. Further, the TGI in [1], in assay [2], in assay [3], in assay [4], in assay [5] and in assay [6] was greater than 100 µM throughout. For the same molecule, the TGI in assay [7], in assay [8], in assay [9] and in assay [10] was greater than 100 µM throughout.
